Data published in patent US20100179158A1, “INHIBITORS OF CYCLIC AMP PHOSPHODIESTERASES” (priority 2007, published 2010).

How the values were obtained:
PDE4D3 [1] = target: T1, PDE4D3 (Homo sapiens, UniProt Q08499); assay: IC50 on PDE4D3; assay type: biochemical; details: read-out: IC50, PDE 4D3
T1 construct: targets used in the assays are full-length proteins (as opposed to simply the catalytic domain); expressed in transfected cells; host or cells: Schizosaccharomyces pombe, gene integrated at the cgs2 locus

PDE4A1 [2] = target: T2, PDE4A1 (Mus musculus, UniProt O89084); assay: Fission yeast 5FOA growth assay, strain expressing PDE4A1; assay type: cell-based, murine; details: 5FOA growth screen; for 1 Assay (20 uM), PDE 4A1: 20 uM compound; for 2 Assay (2 uM), PDE 4A1: 2 uM compound
T2 construct: targets used in the assays are full-length proteins (as opposed to simply the catalytic domain); expressed in transfected cells; host or cells: Schizosaccharomyces pombe, gene integrated at the cgs2 locus
T2 sequence (O89084 1-610 isoform O89084-2): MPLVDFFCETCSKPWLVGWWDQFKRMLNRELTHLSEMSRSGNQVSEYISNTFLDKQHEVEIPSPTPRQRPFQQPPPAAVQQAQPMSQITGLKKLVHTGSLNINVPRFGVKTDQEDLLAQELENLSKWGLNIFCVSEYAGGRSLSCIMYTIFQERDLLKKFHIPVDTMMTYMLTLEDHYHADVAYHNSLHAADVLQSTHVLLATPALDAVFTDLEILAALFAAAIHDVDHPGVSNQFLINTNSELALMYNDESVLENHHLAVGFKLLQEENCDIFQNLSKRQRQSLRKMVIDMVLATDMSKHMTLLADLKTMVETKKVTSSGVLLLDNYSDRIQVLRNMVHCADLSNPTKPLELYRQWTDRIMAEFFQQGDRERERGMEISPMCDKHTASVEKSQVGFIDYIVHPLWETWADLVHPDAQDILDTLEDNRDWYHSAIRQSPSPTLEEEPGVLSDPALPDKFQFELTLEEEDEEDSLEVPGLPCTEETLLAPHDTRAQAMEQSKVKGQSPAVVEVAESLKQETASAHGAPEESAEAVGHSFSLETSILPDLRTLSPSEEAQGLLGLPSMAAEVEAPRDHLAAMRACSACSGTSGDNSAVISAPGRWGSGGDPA
Method: High throughput drug screens were carried out at the Broad Institute's Chemical Biology Program screening facility (Broad Institute, Cambridge, Mass.). Depending upon the strain, cultures were pregrown to exponential phase in EMM complete medium containing from 0.5 to 2.5 mM cAMP to repress fbp1-ura4 transcription. […] Starting cell concentrations ranged from 0.5×10^5 to 4×10^5 cells/ml depending on the screening strain. […] Other positive control dishes contained 5 mM cAMP in the 5FOA medium. Cultures were grown for 48 hours at 30° C., sealed in an airtight container with moist paper towels to prevent evaporation. Optical densities (OD600) of cultures were measured using a microplate reader. Bioinformatic analysis of the results to determine composite Z scores was performed as previously described^30, 31.
Cells were pregrown in EMM medium [MP Biomedicals (Solon, OH), 3% glucose, filter-sterilized to avoid carmelization, which would introduce variability into the optical density of the medium] containing from 0 mM to 2.5 mM cAMP (or either 0.5 mM or 1.0 mM cGMP). This was to repress expression of the fbp1-ura4 reporter prior to exposure of cells to 5FOA medium. Cells were grown at 30° C. to exponential phase (approximately 10^7 cells/ml). […] Starting cell concentrations ranged from 0.5×10^5 to 4×10^5 cells/ml depending on the screening strain. […] Other positive control dishes contained 5 mM cAMP in the 5FOA medium for PDEs that lack appropriate control compounds. Cultures were grown for 48 hours at 30° C., sealed in an airtight container with moist paper towels to prevent evaporation. Optical densities (OD600) of cultures were measured using a microplate reader. Bioinformatic analysis of the results to determine composite Z scores was performed as previously described (1, 3).

[3] = tested on: PDE4A, PDE4B, PDE4D, PDE7A; assay: Overall PDE inhibitor profile from the yeast assays (table footnotes, summary); assay type: cell-based
In short: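 Fission yeast strains expressing full-length PDEs with an fbp1-ura4 reporter, pregrown in EMM with 0–2.5 mM cAMP (or 0.5 or 1.0 mM cGMP), then grown 48 h at 30° C in 5FOA medium with 100 nl of compound pinned per well (10 mM stocks). Growth read as OD600; composite Z scores calculated.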

PDE4D3 [4] = target: T1, PDE4D3; assay: cAMP assay in yeast strain expressing PDE4D3; assay type: cell-based
PDE4D3 [5] = target: T1, PDE4D3; assay: Fission yeast 5FOA growth assay, strain expressing PDE4D3; assay type: cell-based; details: 2 uM compound, 5FOA growth screen
Method: Cells were pregrown in EMM medium [MP Biomedicals (Solon, OH), 3% glucose, filter-sterilized to avoid carmelization, which would introduce variability into the optical density of the medium] containing from 0 mM to 2.5 mM cAMP (or either 0.5 mM or 1.0 mM cGMP). This was to repress expression of the fbp1-ura4 reporter prior to exposure of cells to 5FOA medium. Cells were grown at 30° C. to exponential phase (approximately 10^7 cells/ml). Cells were collected by centrifugation and resuspended in 5FOA medium, and 25 μl were transferred to 384-well microtiter dishes (untreated, with flat clear bottoms) that had been pre-filled with 25 μl 5FOA medium and pre-pinned with 100 nl of compounds (stock solutions were generally 10 mM). Starting cell concentrations ranged from 0.5×10^5 to 4×10^5 cells/ml depending on the screening strain. […] Other positive control dishes contained 5 mM cAMP in the 5FOA medium for PDEs that lack appropriate control compounds. Cultures were grown for 48 hours at 30° C., sealed in an airtight container with moist paper towels to prevent evaporation. Optical densities (OD600) of cultures were measured using a microplate reader. Bioinformatic analysis of the results to determine composite Z scores was performed as previously described (1, 3).

PDE4A1 [6] = target: T2, PDE4A1; assay: cAMP assay in yeast strain expressing PDE4A1; assay type: cell-based, murine
PDE4D2 = target: T3, PDE4D2 (Homo sapiens, UniProt Q08499); assay: cAMP assay in yeast strain expressing PDE4D2; assay type: cell-based
T3 construct: targets used in the assays are full-length proteins (as opposed to simply the catalytic domain); expressed in transfected cells; host or cells: Schizosaccharomyces pombe
T3 sequence (Q08499 303-809): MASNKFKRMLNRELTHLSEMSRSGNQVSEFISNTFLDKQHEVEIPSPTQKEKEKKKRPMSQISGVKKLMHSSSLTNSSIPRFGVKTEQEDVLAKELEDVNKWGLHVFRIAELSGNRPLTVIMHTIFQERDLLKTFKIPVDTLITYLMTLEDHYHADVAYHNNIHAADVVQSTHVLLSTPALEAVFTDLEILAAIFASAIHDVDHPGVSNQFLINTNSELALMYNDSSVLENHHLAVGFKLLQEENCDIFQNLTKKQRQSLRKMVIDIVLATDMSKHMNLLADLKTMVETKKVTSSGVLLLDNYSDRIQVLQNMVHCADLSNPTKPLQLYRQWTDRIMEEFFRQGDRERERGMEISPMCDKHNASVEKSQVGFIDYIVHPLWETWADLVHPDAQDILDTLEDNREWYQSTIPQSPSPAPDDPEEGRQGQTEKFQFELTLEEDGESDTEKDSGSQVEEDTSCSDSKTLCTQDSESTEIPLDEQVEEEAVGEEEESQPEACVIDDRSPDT

T1 sequence (Q08499 1-673 isoform Q08499-2): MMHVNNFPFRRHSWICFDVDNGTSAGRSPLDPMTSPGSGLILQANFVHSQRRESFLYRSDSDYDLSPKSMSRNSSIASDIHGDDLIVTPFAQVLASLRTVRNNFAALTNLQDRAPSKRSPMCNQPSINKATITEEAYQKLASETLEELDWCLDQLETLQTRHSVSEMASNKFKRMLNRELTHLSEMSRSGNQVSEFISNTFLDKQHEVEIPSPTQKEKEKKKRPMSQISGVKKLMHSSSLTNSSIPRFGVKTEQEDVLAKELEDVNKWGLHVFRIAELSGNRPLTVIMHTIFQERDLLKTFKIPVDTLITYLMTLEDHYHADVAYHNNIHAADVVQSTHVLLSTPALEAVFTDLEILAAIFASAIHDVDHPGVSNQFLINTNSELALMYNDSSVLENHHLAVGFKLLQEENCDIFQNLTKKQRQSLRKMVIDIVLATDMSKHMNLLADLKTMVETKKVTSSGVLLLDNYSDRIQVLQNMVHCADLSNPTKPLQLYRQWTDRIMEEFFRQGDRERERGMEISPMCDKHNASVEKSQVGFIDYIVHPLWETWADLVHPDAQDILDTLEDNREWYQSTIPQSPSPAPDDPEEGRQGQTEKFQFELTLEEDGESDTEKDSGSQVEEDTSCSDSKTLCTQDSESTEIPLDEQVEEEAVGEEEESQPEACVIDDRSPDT

## Cc1ccc2c(c1)c1nc3ccccc3nc1n2C(C)C [Compound 41]
PDE4D3 [1]
  IC50: 200 nM
PDE4A1 [2]
  1 Assay (20 uM), PDE 4A1: 106.90

## COC(=O)C1=C(C)N(c2ccccc2)/C(=C/c2cccs2)C1=O [2008, K19]
PDE4A1 [2]
  1 Assay (20 uM), PDE 4A1: −0.46 ND ND ND ND
[3]
  PDE inhibitor profile in words (table footnote / summary): (1) No activity under conditions used

## COC(=O)C1=C(C)N(C2CCCCC2)C(=O)/C1=C\c1cccs1 [Compound 22]
PDE4D3 [4]
  cAMP Response (% rolipram), PDE 4D3: 12.00 % rolipram
PDE4D3 [5]
  2 Assay (2 uM), PDE 4D3: 42.32
PDE4A1 [6]
  cAMP Response (% rolipram), PDE 4A1: 54.00 % rolipram
PDE4A1 [2]
  2 Assay (2 uM), PDE 4A1: 27.01
  1 Assay (20 uM), PDE 4A1: 98.84
PDE4D2
  cAMP Response (% rolipram), PDE 4D2: ND ND ND 34.00 ND % rolipram
[3]
  PDE inhibitor profile in words (table footnote / summary): (4) Strong PDE4A, 4B, 7 inhibitor; Weak PDE4D inhibitor

## COC(=O)C1=C(C)N(c2ccccc2F)C(=O)/C1=C\c1cccc(OC)c1O [2008, C21]
PDE4A1 [2]
  1 Assay (20 uM), PDE 4A1: 18.97 ND ND ND ND
[3]
  PDE inhibitor profile in words (table footnote / summary): (2) Strong PDE4A, 4B inhibitor

## COC(=O)C1=C(C)N(c2ccccc2Cl)C(=O)/C1=C\c1cccs1 [Compound 27]
PDE4D3 [4]
  cAMP Response (% rolipram), PDE 4D3: 8.00 % rolipram
PDE4D3 [5]
  2 Assay (2 uM), PDE 4D3: 0.00
PDE4A1 [6]
  cAMP Response (% rolipram), PDE 4A1: 78.00 % rolipram
PDE4D3 [1]
  IC50: 100 nM
PDE4A1 [2]
  2 Assay (2 uM), PDE 4A1: 17.41
  1 Assay (20 uM), PDE 4A1: 64.18
PDE4D2
  cAMP Response (% rolipram), PDE 4D2: ND ND ND 11.00 ND % rolipram
[3]
  PDE inhibitor profile in words (table footnote / summary): (3) Strong PDE4A, 4B inhibitor

## COC(=O)C1=C(C)N(c2ccc(C(C)C)cc2)C(=O)/C1=C\c1cccs1 [2008, O19]
PDE4A1 [2]
  1 Assay (20 uM), PDE 4A1: 0.80 ND ND ND ND
[3]
  PDE inhibitor profile in words (table footnote / summary): (1) No activity under conditions used
